Patent US20100068782A1, “METHOD FOR THE SURFACE TREATMENT OF SOLID SUBSTRATES” (UNIVERSIDAD DEL (PIAS) PAIS VASCO, priority 2006, published 2010)
Non-standard residues stand in square brackets, D forms with d. Residues, ends and D or L forms follow the SMILES beside them. *: point of attachment. Fmoc = O=C(OCC1c2ccccc2-c2ccccc21)*; Cha = N[C@@H](CC1CCCCC1)C(=O)O; AMC = Cc1cc(=O)oc2cc(N*)ccc12

Tested on: galanin receptors
Test: autoradiography of [35S]GTPγS binding in tissue arrays of isolated cell membranes with ligands of galanin receptors
Format: biochemical, Sprague Dawley rats
Conditions: for antagonism of the action of galnon on [35S]GTPγS binding: galnon + antagonist, tissue arrays (FIG. 7); for binding of [35S]GTPγS in the presence of ligand: some tissues (e.g., pituitary), membranes on slides treated with orthophosphoric acid, vs basal
Description: Five male Sprague Dawley rats (250-275 g) were anesthetized and sacrificed according to the guide approved by the Ethics Committee of the Faculty of Medicine of the Basque Country University following internationally accepted guidelines (86/609/EEC). Organs and tissues which would be used in the experiment (pancreas, stomach, small intestine, spleen, heart, lung, liver, testicle, deferent duct, kidney, suprarenal glands, spinal cord and brain: frontal cortex, striatum, brain stem, pituitary, olfactory nuclei, hippocampus, hypothalamus, thalamus, colliculus and cerebellum) were subsequently extracted. These samples were stored at −70° C. until performing the experiment.
The tissue samples (1 g) were homogenized using a Teflon-glass homogenizer (10 taps at 1,500 rpm) in 30 volumes of homogenization buffer 1 mM [ethylene glycol-bis(β-aminoethyl)-N,N,N′,N′-tetraacetic acid (EGTA), 3 mM MgCl2, 1 mM dithiothreitol (DTT) and 50 mM Tris-HCl, pH 7.4] supplemented with […] sucrose. The crude homogenate was centrifuged at 3,000×g and at 4° C. for 5 minutes and the resulting supernatant was again centrifuged at 40,000×g for 10 minutes (4° C.). The pellet was washed in 20 volumes of homogenization buffer and re-centrifuged in the same conditions. Aliquots were prepared and stored at −70° C. The protein content was determined according to the Bradford method [Bradford M M., Anal Biochem 1976; 72:248-54] using bovine serum albumin (BSA) as standard.
Aliquots of 1 mg/ml of each tissue were taken and with this suspension, 1 μl microspots were made on glass supports (microscope slides) subjected to the following treatments: • a) Treated with orthophosphoric acid (PA) according to the process of Example 1; • b) Gelatinized (G); • c) Coated with gamma-aminopropyltriethoxysilane (APTS); • d) Treated with nitric acid and gelatinized (NA); • e) Treated with nitric acid and subsequently with lignin (NA+lignin); • f) Treated with nitric acid and subsequently with pectin (NA+pectin); or • g) Treated with nitric acid and subsequently with Kuzu (NA+Kuzu).
The microscope slides with the tissue sections were left drying for 15 minutes at room temperature. Subsequently the tissue sections were preincubated in assay buffer at pH 7.4 [50 mM Tris-HCl, 3 mM MgCl2, 0.2 mM EGTA, 100 mM NaCl, 3 mU/ml adenosine deaminase] for 20 minutes at room temperature to eliminate, as much as possible, the presence of endogenous neurotransmitters; after that, the sections were again preincubated in the assay buffer supplemented with guanosine diphosphate (GDP) (2 mM) and DTT (1 mM).
The microscope slides were then incubated for 2 hours at 30° C. in the previous assay buffer, to which the following substances were added depending on the different conditions of the experiment:
After this time, 2 15-minute washings were performed in 50 mM Tris-HCl buffer, pH 7.4 at 4° C. After the second washing, the sections were immersed in distilled water at 4° C. to eliminate the salts and the microscope slides were dried by means of the application of a cold airflow.
Subsequently, the microscope slides with the corresponding sections were exposed to a radiosensitive film (Kodak Biomax MR) which was developed similarly to photographic film. The labeling was quantified transforming the different gray densities into nCi/g tissue equivalent. To that end, each film was exposed together with previously calibrated commercial standards (Amersham). The quantification was performed with microscopic anatomical resolution in a computerized image analysis system, using NIH-image software.
The substances added in the different assays were the following: • (A) To study the binding of [^35S]GTPγS in the absence (basal) and in the presence of agonists, the following agonists were used: • (i) the cannabinoid agonist WIN 55212-2 [(R)-(+)-[2,3-dihydro-5-methyl-3-[(4-morpholinyl)methyl]pyrrolo[1,2,3-d,e]-1.4-benzoxazin-6-yl]-(1-naphthalenyl)methanone mono-methanesulphonate] […]

| Compound | antagonism of the action of galnon on [35S]GTPγS binding | binding of [35S]GTPγS in the presence of ligand |
| --- | --- | --- |
| galanin-(1-13)-Pro-Pro-Ala-Leu-Ala-Leu-Ala-Leu-Ala amide [M40] | antagonized | increases |
| galanin-(1-13)-bradykinin,-(2,9)amide [M35] | antagonized | increases |
| Cc1cc(=O)oc2cc(NC(=O)[C@H](CCCCN)NC(=O)[C@H](CC3CCCCC3)NC(=O)OCC3c4ccccc4-c4ccccc43)ccc12 [galnon] (Fmoc-[Cha]-Lys-{AMC}) | – | increases |
| gal(2-11) | – | increases |
| galanin-(1-13)-substance P-5-11 amide [M15] | – | increases |
